Conditions: Liquid, vibrating tube

CCCCCCCCCCCCCC[P+](CCCCCC)(CCCCCC)CCCCCC.[Cl-] [trihexyl(tetradecyl)phosphonium chloride]
mass density [kg/m3]
Conditions | 298.13 K | 303.15 K | 308.13 K | 313.15 K | 318.15 K | 323.14 K | 328.16 K | 333.14 K
190 kPa | 891.62 | 888.51 | 885.65 | 882.72 | 879.82 | 876.69 | 873.88 | 870.88
1000 kPa | 892.02 | 888.97 | 886.07 | 883.19 | 880.27 | 877.16 | 874.33 | 871.36
3000 kPa | 893.07 | 890.03 | 887.18 | 884.3 | 881.41 | 878.29 | 875.5 | 872.51
5010 kPa | 894.09 | 891.06 | 888.26 | 885.4 | 882.52 | 879.43 | 876.64 | 873.64
7500 kPa | 895.36 | 892.35 | 889.57 | 886.75 | 883.89 | 880.82 | 878.05 | 875.05
10000 kPa | 896.59 | 893.6 | 890.87 | 888.06 | 885.24 | 882.18 | 879.42 | 876.42
15010 kPa | 899.02 | 896.1 | 893.38 | 890.63 | 887.86 | 884.84 | 882.11 | 879.11
19990 kPa | 901.33 | 898.48 | 895.82 | 893.11 | 890.37 | 887.38 | 884.69 | 881.72
25010 kPa | 903.6 | 900.78 | 898.17 | 895.49 | 892.81 | 889.86 | 887.2 | 884.25
29990 kPa | 905.77 | 903.01 | 900.42 | 897.81 | 895.15 | 892.24 | 889.62 | 886.71
35010 kPa | 907.93 | 905.17 | 902.63 | 900.04 | 897.43 | 894.57 | 891.98 | 889.11
39990 kPa | 910.01 | 907.28 | 904.75 | 902.21 | 899.63 | 896.82 | 894.24 | 891.46
45010 kPa | 912.05 | 909.34 | 906.82 | 904.32 | 901.78 | 899.01 | 896.49 | 893.73
50000 kPa | 914.03 | 911.34 | 908.83 | 906.35 | 903.87 | 901.13 | 898.62 | 895.96
55000 kPa | 915.93 | 913.27 | 910.78 | 908.34 | 905.9 | 903.19 | 900.74 | 898.14
59990 kPa | 917.83 | 915.17 | 912.67 | – | 907.87 | 905.21 | 902.79 | 900.26
65000 kPa | 919.63 | 916.99 | 914.51 | – | 909.78 | 907.16 | 904.8 | 902.35

Source: the NIST ThermoML archive (doi:10.1021/je050358g)
